The target of series [1] is T1, CD36 (Homo sapiens, UniProt P16671). The note with it: Demers et al. 2004, cited from earlier work.
For series [2], the system named is CD36 mRNA. Description: CD36 siRNA transfection in C8-D1A cells, CD36 mRNA levels. It is filed as cell-based. The note with it: 20 nM siRNA, 24h after transfection, N=4, vs negative control. On the procedure:
FIG. 4. Efficacy of CD36 siRNA. 20 nM siRNA either singly or in combination were transfected in C8-D1A cells. CD36 mRNA levels were measured 24h later. N=4. Negative controls were adjusted to the amount of siRNA. **p<0.01, ***p<0.001 vs correponding control.
CD36 was inhibited using an RNAi technique. 20 nM siRNA either singly or in combination were transfected in C8-D1A cells. CD36 mRNA levels were measured 24h later. N=4. Negative controls were adjusted to the amount of siRNA. **p<0.01, ***p<0.001 vs correponding control.

The target of series [3] is T1, CD36. The following applies: Xu, Y et al., Anal Biochem 2010; cited from earlier work.
Series [4] concerns CD36. The note with it: literature, cited from earlier work.
Series [5] has as its system hyperlipidemic ApoE KO (AKO) mice. As to the kind of experiment: Fasting blood glucose and glucose tolerance test in SAB-treated high fat fed ApoE KO mice. The series is classed as in vivo, mouse. From the text:
(§1) FIG. 1A-1I. In vivo effect of chronic SAB treatment on physiological responses. (A), Body weight changes in ApoE KO mice fed a high fat diet for 8 weeks in vehicle (Veh)- and salvianolic acid (SAB)-treated mice. (B), Pictures were taken at the end of 8 weeks of high fat diet. […] (C), Fasting blood glucose levels. (D), Glucose tolerance test. (E), Area under curve (AUC). (F), CD36 mRNA levels in peritoneal macrophages and spleen from vehicle and SAB treated mice. (G), Measurement of lipid content from blood vessels. Lipid extraction and determination was performed using published methods (Kim et al., 2008). (H), Fold increases of plasma cholesterol levels 4 and 8 weeks after high fat diet. (I), Oil red O staining in the liver of vehicle and SAB treated mice. […] Number in parentheses indicates number of animals for the measurements.
SAB treatment improves insulin sensitivity. Fasting blood glucose levels were similar in SAB-treated and control mice at zero, four, and eight weeks of treatment (FIG. 1C). However, when mice were challenged with glucose tolerance test (an intraperitoneal injection of […]), blood glucose was cleared much faster in SAB-treated mice (45 minutes after challenge, initial blood glucose spike reduced by 75%) relative to vehicle-treated mice (45 minutes after challenge, initial spike in blood glucose reduced by less than 10%; FIG. 1D).

Series [6] addresses T1, CD36. Description: High throughput screen for CD36 antagonists. From the text:
Candidate modulator compounds from libraries of synthetic or natural compounds can be screened by methods known in the art (see Chinese patent number ZL200510072269.1, Publication No: CN1868546, and Chinese patent application number 200910147634.9, each hereby incorporated in its entirety by reference). Synthetic compound libraries are commercially available from a number of companies including Maybridge Chemical Co. (Trevillet, Cornwall, UK), Comgenex (Princeton, N.J.), Brandon Associates (Merrimack, N.H.), and Microsource (New Milford, Conn.). Combinatorial libraries are available or can be prepared according to known synthetic techniques. Alternatively, libraries of natural compounds in the form of bacterial, fungal, plant and animal extracts are available from e.g., Pan Laboratories (Bothell, Wash.) or MycoSearch (NC), or are readily producible by methods well known in the art. Additionally, natural and synthetically produced libraries and compounds can be further modified through conventional chemical and biochemical techniques.
The use of high throughput screening has allowed the identification of compounds that potently antagonize CD36 in vitro. Following isolation of CD36 antagonists by in vitro testing, experiments can be conducted to test the efficacy in vivo. […]

Series [7] relates to ApoE KO mouse macrophages. As to the kind of experiment: Foam cell assay / lipid accumulation in primary macrophages incubated with oxLDL. The series is classed as cell-based. The note with it: 48 h, vs oxLDL alone. On the procedure:
FIG. 5. Effects of SAB on lipid accumulation in ApoE KO mouse macrophages. Primary macrophages were seeded in 4 chamber slides and then incubated with 20 μg/ml oxLDL and/or different concentrations of SAB for 48 h. (A-D) Lipids were stained with oil red O and examined by microscopy; representative images are shown. (A), vehicle only; (B), 25 μM SAB treatment; (C), 20 μg/ml oxLDL; (D), 20 μg/ml oxLDL+25 μM SAB. Scale bar, 50 μm; higher magnification micrographs of oil red O stains were shown in upper-right of each picture. (E-F), Quantification for foam cell assay in primary macrophage. White bar, macrophages incubated with vehicle only (no oxLDL or SAB); black bar, incubated with 20 μg/ml oxLDL; grey bars, incubated with 20 μg/ml oxLDL plus 10, 25 or 100 μM SAB (SAB concentration listed below each bar); (E), Degree of lipid accumulation measured as intensity of integrated optical density; (F), Foam cell average area compared to average area of control macrophages incubated with vehicle. Control (vehicle-treated) average individual macrophage cell size/ area was normalized as 1; macrophages treated with oxLDL show increased individual relative cell area resulting from lipid internalization (black bar); SAB treatment (grey bars) reduced lipid internalization and relative cell size/area. n=3-6 cells/group. **,***p<0.01, 0.001 compared with no oxLDL(0).
SAB reduces lipid accumulation in ApoE KO mouse macrophages. Primary macrophages were isolated from ApoE KO mice and incubated with oxidized low density lipoproteins (oxLDL) and/or different concentrations of SAB for 48 h, then stained for lipid accumulation. […] Thus, CD36 antagonists can prevent accumulation of fat and lipids in cells subject to lipid-rich environments.
SAB reduces lipid accumulation and foam cell formation. Primary macrophages cultured from ApoE KO mice show a low intensity of optical density (IOD) commensurate with small cellular area (FIGS. 5E and 5F, white bar). […]

Series [8] relates to hyperlipidemic ApoE KO (AKO) mice. Description: Chronic SAB treatment of ApoE KO mice fed a high fat diet for 8 weeks: body weight, fat, cholesterol, liver and vessel lipid. It is filed as in vivo, mouse. The note with it: for average visceral fat weight: p<0.001.
Description: as §1
FIG. 2A-2B. Visceral fat weight in high fat fed ApoE KO mice treated with SAB (100 mg/kg) for 8 weeks. 100 mg/kg SAB or vehicle (veh) was injected every other day by subcutaneous injection. n=8-10/group. […] (B), SAB reduced visceral fat weight from average=81 mg/animal to average=32 mg/animal. ***, p<0.001.
Chronic SAB treatment in hyperlipidemic ApoE KO (AKO) mice reduces weight gain and visceral fat accumulation. […] Feeding a high fat diet to the ApoE KO mice for 8 weeks increases plasma cholesterol levels approximately 5 fold (Kim et al., 2008). Six week old male ApoE KO (HL AKO) mice were fed a high fat diet for 8 weeks with or without SAB (100 mg/kg, subcutaneously every other day). […] The difference in weight between the groups was apparent by the 3rd week of treatment (FIG. 1A). […] Thus, SAB reduces body weight and fat accumulation, particularly visceral/abdominal fat accumulation and liver fat deposits, and also lowers plasma cholesterol.
Visceral fat weight in high fat fed ApoE KO mice treated with either vehicle or SAB (100 mg/kg) for 8 weeks. 100 mg/kg SAB or vehicle (veh) was injected every other day by subcutaneous injection. n=8-10 mice/group, ***, p<0.001. […] SAB reduced visceral fat weight by 60% (32 mg average visceral fat weight in SAB treated mice versus 81 mg average visceral fat weight in controls; FIG. 2B). This provides further evidence that CD36 antagonists can reduce fat accumulation, particularly visceral fat accumulation.

For series [9], the system named is CD36 mRNA. Description: CD36 gene expression in peritoneal macrophages and spleen from vehicle and SAB-treated mice. The series is classed as in vivo, mouse. The following applies: SAB-treated vs vehicle mice.
Description: as §1
SAB treatment reduces CD36 expression in peritoneal macrophages. Since CD36 is expressed in monocytes and macrophages, CD36 gene expression was compared in peritoneal macrophages and the spleen, a peripheral organ that serves as a reservoir of monocytes, from vehicle and SAB-treated mice. CD36 mRNA levels were reduced in both peritoneal and spleen macrophages of SAB-treated mice (FIG. 1F). […]

The mark [10] stands for this setting: 20 μg/ml oxLDL plus 10, 25 or 100 μM SAB.
The mark [11] stands for this setting: SAB 100 mg/kg s.c. every other day, high fat diet 8 weeks.

Entries after “also recorded” stand apart in the source; their conditions may differ. Square brackets hold non-standard residues; d marks the D form. Peptide text beside a SMILES is read from it. dTrp(2-Me) = Cc1[nH]c2ccccc2c1C[C@@H](N)C(=O)O

T1 sequence (P16671 whole entry): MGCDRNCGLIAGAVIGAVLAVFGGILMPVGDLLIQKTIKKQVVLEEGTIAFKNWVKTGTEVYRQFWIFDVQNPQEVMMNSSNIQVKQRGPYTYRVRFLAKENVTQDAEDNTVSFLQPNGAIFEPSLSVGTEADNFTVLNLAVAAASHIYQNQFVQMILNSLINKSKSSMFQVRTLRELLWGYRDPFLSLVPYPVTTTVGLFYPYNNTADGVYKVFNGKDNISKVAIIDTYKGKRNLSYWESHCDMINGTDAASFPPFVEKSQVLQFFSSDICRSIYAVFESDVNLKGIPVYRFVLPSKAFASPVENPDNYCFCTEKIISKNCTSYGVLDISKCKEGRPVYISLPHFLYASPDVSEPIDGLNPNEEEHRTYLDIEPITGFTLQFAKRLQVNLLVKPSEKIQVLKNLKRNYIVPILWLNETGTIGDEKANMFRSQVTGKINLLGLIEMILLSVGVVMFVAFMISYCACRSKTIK

With `Cc1[nH]c2ccccc2c1C[C@@H](NC(=O)[C@@H](N)Cc1cnc[nH]1)C(=O)N[C@@H](C)C(=O)N[C@@H](Cc1c[nH]c2ccccc12)C(=O)N[C@H](Cc1ccccc1)C(=O)N[C@@H](CCCCN)C(N)=O` [hexarelin] (H-H[dTrp(2-Me)]AW[dF]K-NH2), the “binding to CD36 receptors” value in series [1] is on record as “binds”. For the same molecule, the “CD36-mediated uptake of oxLDLs” value in [1] (binding site competition) was “blocks”.
“MSS202775: CD36 siRNA from exon9, SEQ ID NO: 1 and 2 (chain 1 UAGCUUGGCCAAUAGGACAAAUUCC; chain 2 GGAAUUUGUCCUAUUGGCCAAGCUA; chemistry not given here)”: the “CD36 gene expression (CD36 mRNA levels)” value in [2] is listed as “reduced CD36 gene expression significantly”; in [2] (listed as siRNA 75), “most effective”.
`O=C(/C=C/c1ccccc1)c1c[nH]c2ccccc12` [3-cinnamoyl indole]: the “CD36 antagonist identification through high-throughput screening” value in series [3] was “identified”.
For `Cc1c(C)c2c(c(C)c1O)CC[C@@](C)(CCC[C@H](C)CCC[C@H](C)CCCC(C)C)O2` [α-tocopherol], the “uptake of oxLDLs into macrophages” value in [4] is on record as “can reduce”. For the same molecule, in [4] (macrophages), the “expression of CD36” value is listed as “can reduce”.
Consider `O=C(/C=C/c1ccc(O)c2c1[C@H](C(=O)O[C@H](Cc1ccc(O)c(O)c1)C(=O)O)C(c1ccc(O)c(O)c1)O2)O[C@@H](Cc1ccc(O)c(O)c1)C(=O)O` (stereo in doubt) [SAB, salvianolic acid B], for which the “reduction of initial blood glucose spike in glucose tolerance test” value in series [5] (45 minutes after challenge, intraperitoneal injection of 1.5 mg glucose/kg, vehicle less than 10%) is 75%. Besides, the “AUCglucose (glucose area under the curve) in glucose tolerance test” value in [5] (SAB-treated vs vehicle-treated mice) is listed as “significant reduction”. Further, the “fasting blood glucose levels vs control mice” value in [5] (zero, four, and eight weeks of treatment) is “similar”. In addition, in [6], the “CD36 antagonist identification in high throughput screen” value is recorded as “identified as a CD36 antagonist”. For the same molecule, the “lipid accumulation (oil red O staining)” value in [7] (20 μg/ml oxLDL + 25 μM SAB) was “significantly reduced lipid accumulation”. Moreover, in series [7] (setting [10]), the “lipid accumulation as intensity of optical density (IOD)” value is given as “significantly reduced” and the “relative cell area (foam cell average area)” value is listed as “significantly reduced”. For the same molecule, the “reduction of visceral fat weight” value in series [8] (SAB 100 mg/kg s.c. every other day, 8 weeks, vs controls) is 60%. Besides, the “average visceral fat weight” value in series [8] (SAB 100 mg/kg s.c. every other day, 8 weeks, controls 81 mg) worked out at 32 mg. In series [8] (SAB 100 mg/kg s.c. every other day, 8 weeks, vehicle 81 mg/animal), the “average visceral fat weight” value is 32 mg/animal. For the same molecule, in series [8] (setting [11]), the “fat deposition in the liver (Oil red O staining)” value is listed as “profoundly reduced; also recorded: significantly reduced” and the “leaner compared to vehicle treated ApoE KO mice” value stood at 17%. Moreover, the abdominal fat accumulation entry in series [8] (SAB 100 mg/kg s.c. every other day, high fat diet 8 weeks, physical inspection) was “Reduction in abdominal fat was evident; also recorded: substantially reduced; also recorded: either minimal or absent”. Also, the plasma cholesterol levels result in [8] (SAB 100 mg/kg s.c. every other day, high fat diet, 4 and 8 weeks) was “significantly reduced”. Besides, the “rate of weight gain (weekly body weight)” value in series [8] (SAB 100 mg/kg subcutaneously every other day, high fat diet 8 weeks, vs vehicle) is recorded as “significantly reduced”. Besides, the “lipid content in the aorta and extended vessels” value in series [8] (preliminary analysis, SAB-treated vs vehicle mice) is recorded as “trend toward lipid content reduction”. In series [9], the “CD36 mRNA levels in peritoneal macrophages” value is “reduced” and the “CD36 mRNA levels in spleen macrophages” value is reported as “reduced”.
As to `CCCCCc1c2[n+](cc3c(OC)c(OC)ccc13)CCc1cc3c(cc1-2)OCO3` [13 pentyl berberine], the “CD36 antagonist identification through high-throughput screening” value in [3] is on record as “identified”.
As for “MSS202777: CD36 siRNA, exon11, SEQ ID NO: 5 and 6 (chain 1 ACACCAUAAGAUGUACAGUUAUUGG; chain 2 CCAAUAACUGUACAUCUUAUGGUGU; chemistry not given here)”, the “CD36 gene expression (CD36 mRNA levels)” value in [2] is “reduced CD36 gene expression significantly”.
As to “MSS202776: CD36 siRNA, exon7, SEQ ID NO: 3 and 4 (chain 1 CUUGUUUGGAACACAGAAGACUUGG; chain 2 CCAAGUCUUCUAUGUUCCAAACAAG; chemistry not given here)”, in series [2], the “CD36 gene expression (CD36 mRNA levels)” value is “reduced CD36 gene expression significantly”.
